This assay relates to murine fibroblasts (NIH3T3) over-expressing human IGF-1 receptor. In words: Inhibition of IGF-stimulated cell proliferation (BrdU incorporation), Test (c). In kind it is cell-based. The protocol:
The construction of murine fibroblasts (NIH3T3) over-expressing human IGF-1 receptor has been described by Lammers et al (EMBO J, 8, 1369-1375, 1989). These cells show a proliferative response to IGF-I which can be measured by BrdU incorporation into newly synthesised DNA. Compound potency was determined as causing inhibition of the IGF-stimulated proliferation in the following assay:
Compounds are initially dissolved in DMSO to 10 mM, followed by dilutions in DMEM+1% FCS+glutamine to give a range from […] in 1-0.00045% DMSO final concentration in assay well.
Exponentially growing NIH3T3/IGFR cells were harvested and seeded in complete growth medium into a flat-bottomed 96 well tissue culture grade plate (Costar 3525) at 1.2×10^4 cells per well in a volume of 100 μl.
Growth medium was carefully removed from each well using a multi-channel pipette. Wells were carefully rinsed three times with 200 μl with HBSS. […] of starvation medium was added to each well and the plate was re-incubated for 24 hours.
50 μl of a 4× concentrate of test compound was added to appropriate wells. Cells were incubated for 30 minutes with compound alone before the addition of IGF. […]
The incorporation of BrdU in the cells (after a 4 h incorporation period) was assessed using the BrdU Cell Proliferation Elisa according to the manufacturer's protocol.
A general note: Incorporation of labelled thymidine or its analogues reports DNA synthesis.

Consider two compounds from patent US20080161330A1, “Pyrimidines as Igf-I Inhibitors” (ASTRAZENECA AB, priority 2005, published 2008).

Read-outs that look alike come from different tables or passages of the source.

For `Cc1cc(Nc2nc(N3C[C@H](O)C[C@H]3c3cc(-c4ccccn4)no3)ncc2Cl)n[nH]1` [Example 3, 5-Chloro-2-{(2S4R)-4-hydroxy-2-[3-(pyrid-2-yl)isoxazol-5-yl]pyrrolidin-1-yl}-4-(5-methyl-1H-pyrazol-3-ylamino)pyrimidine], 0.8 µM corresponded to half-maximal inhibition (IC50).

For `Cc1cc(Nc2nc(N3C[C@@H](O)C[C@H]3c3cc(-c4ccccn4)no3)ncc2Cl)n[nH]1` [Example 4, 5-Chloro-2-[(2S,4S)-4-hydroxy-2-[3-(pyrid-2-yl)isoxazol-5-yl]pyrrolidin-1-yl]-4-(5-methyl-1H-pyrazol-3-ylamino)pyrimidine], where the note is “Mus musculus”, half-maximal inhibition (IC50) was put at 0.93 µM.
